# In the supplement of paper PMC10307832:
# Tests used:
# Experiment in all cases: relative viability (nuclei count vs DMSO), 5 days (fraction); higher = more cells survive
# [1] = compound: O=S(=O)(c1ccccc1)N(CC(F)(F)F)c1ccc(C(O)(C(F)(F)F)C(F)(F)F)cc1
# Procedure, shortened: (§1)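 Lung cancer cell lines in 1536-well plates were exposed by pinning to five library-drug doses (not always all listed) √10 apart, following an overnight hold at 37 °C. MetaXpress counted Hoechst-stained nuclei from 4× images taken after 5 days without medium change. Viability is the median ratio of treated-well to vehicle-well nuclei across plates. Plates required control CV below 25% and at least one doubling.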
# [2] = compound: C1=CC2=C(C=CC(=C2)C=C3C(=O)NC(=NCC4=CC=CS4)S3)N=C1 [RO-3306]
# Procedure, shortened: as §1
# [3] = compound: COc1cc2c(Oc3ccc(NC(=O)C4(C(=O)Nc5ccc(F)cc5)CC4)cc3F)ccnc2cc1OCCCN1CCOCC1 [Foretinib] (anchor plate); settings: 0.25 µM
# Procedure, shortened: as §1
# [4] = compound: C1=CC2=C(C=CC(=C2)C=C3C(=O)NC(=NCC4=CC=CS4)S3)N=C1 [RO-3306] + C[C@]1(O)C[C@@H](c2nc(-c3ccc4ccc(-c5ccccc5)nc4c3)c3c(N)nccn32)C1 [Linsitinib] (partner 1 µM)
# Procedure, shortened: (§2)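 Relative viability equals treated-well nuclei counts divided by vehicle-well nuclei counts. Counts came from 4× images of lung cancer cell lines grown in 1536-well plates for 5 days after pin-tool dosing on the day after seeding. Dosing used one drug alone or a fixed anchor-drug dose plus five library-drug doses (not always all listed) in √10 steps, and values are medians of duplicate plates.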
# [5] = compound: O=S(=O)(c1ccccc1)N(CC(F)(F)F)c1ccc(C(O)(C(F)(F)F)C(F)(F)F)cc1 + Cc1cc(Nc2cc(N3CCN(C)CC3)nc(Sc3ccc(NC(=O)C4CC4)cc3)n2)n[nH]1 [Tozasertib] (partner 0.1 µM)
# Procedure, shortened: as §2
# [6] = compound: O=S(=O)(c1ccccc1)N(CC(F)(F)F)c1ccc(C(O)(C(F)(F)F)C(F)(F)F)cc1 + N=C(N)NC(=N)NCCc1ccccc1 [Phenformin] (partner 250 µM)
# Procedure, shortened: as §2
Cell Line,relative viability ([1]; 0.8 µM),relative viability ([1]; 2.53 µM),relative viability ([1]; 8 µM),relative viability ([2]; 0.01 µM),relative viability ([2]; 0.03162 µM),relative viability ([2]; 0.1 µM),relative viability ([2]; 0.3162 µM),relative viability ([2]; 1 µM),relative viability [3],relative viability ([4]; first compound 0.01 µM),relative viability ([4]; first compound 0.03162 µM),relative viability ([4]; first compound 0.1 µM),relative viability ([4]; first compound 0.3162 µM),relative viability ([4]; first compound 1 µM),relative viability ([5]; first compound 0.8 µM),relative viability ([5]; first compound 2.53 µM),relative viability ([5]; first compound 8 µM),relative viability ([6]; first compound 0.8 µM),relative viability ([6]; first compound 2.53 µM),relative viability ([6]; first compound 8 µM)
NCI-H1915,1.06,0.98,1.08,1.05,0.944,0.98,0.992,0.536,1.1,1.16,1.11,1.08,1.08,1.07,0.458,0.454,0.468,0.373,0.309,0.408
NCI-H1944,1.1,0.955,1.07,1.08,0.911,0.917,1.01,0.929,0.895,1.22,1.07,1.08,1.36,1.17,0.263,0.263,0.234,0.209,0.19,0.197
NCI-H1975,1.09,0.943,0.95,1.09,0.804,0.869,0.997,0.91,0.958,1.11,0.981,1.01,0.891,0.913,0.781,0.622,0.659,0.452,0.439,0.414
NCI-H1993,0.987,0.831,0.711,0.808,0.719,0.893,0.849,0.941,0.782,–,0.711,0.678,0.732,0.695,0.596,0.535,0.528,0.522,0.529,0.469
NCI-H2009,0.977,0.862,0.891,1.03,0.955,0.983,1.02,1,1.22,1.22,1.12,1.18,1.23,1.23,0.749,0.57,0.679,0.47,0.439,0.419
NCI-H2023,1.11,0.885,0.766,1.18,0.803,0.901,1,0.858,0.893,0.607,0.566,0.637,0.798,0.585,0.335,0.289,0.249,0.472,0.369,0.311
NCI-H2085,0.967,0.908,0.929,0.985,0.936,0.98,1.05,0.995,1.01,0.882,0.755,0.884,0.866,0.84,0.809,0.727,0.688,0.805,0.695,0.741
NCI-H2087,1.11,0.993,0.909,1.11,0.918,1.1,1.04,0.991,1.06,0.977,0.982,1.06,1.05,0.928,0.255,0.258,0.188,0.512,0.456,0.341
NCI-H2126,1.1,1.01,1.02,1.01,0.916,0.988,1.03,0.938,1.2,0.678,0.709,0.775,0.678,0.635,0.934,0.887,0.769,0.578,0.533,0.518
NCI-H2228,1.08,0.962,0.937,1.07,0.96,1.09,1,0.696,0.886,0.963,0.529,0.678,0.655,0.617,0.265,0.176,0.183,0.319,0.286,0.293
NCI-H2347,1.08,1.01,1.04,1.19,0.882,1.05,1,1,0.902,1.01,0.877,0.999,1.01,0.795,0.628,0.523,0.646,0.462,0.38,0.342
NCI-H2405,1.03,0.987,0.945,1,0.949,0.995,1.02,0.906,1.01,0.994,0.873,0.896,0.921,0.944,0.889,0.749,0.711,0.386,0.402,0.396
NCI-H3122,0.99,0.977,1.08,1.05,0.99,1.01,1.05,1.04,0.93,1.1,0.995,1.02,0.981,1.03,0.419,0.424,0.489,0.345,0.334,0.338
PC-3 [JPC-3],1.06,1.06,1,1.03,0.929,1.03,1.01,1.06,1.01,0.947,0.968,0.996,0.963,0.971,0.819,0.838,0.767,0.441,0.551,0.501
